The record followed here is patent US6123964A, “Wet granulation formulation of a growth hormone secretagogue” (priority 1998, dated 2000).

Structures are written as SMILES. Where a name gives a salt, the structure may show the parent alone.

Data set [1] can be described thus: Hygroscopicity of wet crystals. The format is physicochemical. To be noted: wet crystals during filtration. As to the method:
The volume of the solution of 15 from the previous step was adjusted to 60 L with ethyl acetate and EtOH (4.8 L) was added. The MsOH (316 mL) was added in 3 L of EtOAc at 45° C. To the deep red homogeneous solution was added 496 g of the title compound Form I seed (10% seed based on the weight of the free amine was employed). The temperature rose to ca. 48° C. and the reaction was aged at 52° C. for 1.5 hours. Analysis indicated complete conversion to the title compound (Form I). (At less than 10% seed longer age (>3 hours) was required). The slurry was allowed to cool to 20° C. overnight and was filtered in a centrifuge under N2. The cake was washed with 20 L of 8% EtOH in EtOAc. […] The batch was dried at 35° C. under vacuum to afford 2.7Kg (56% overall yield) of the title compound (Form I) (99.9 A % purity; <0.1% enantiomer).

Data set [2] in a line: physchem. The format is physicochemical. Conditions: solid state, initial compound present. How it is done: As a mimic of the tablet formulation process, a concentrated solution of N-[1(R)-[(1,2-dihydro-1-methanesulfonylspiro[3H-indole-3,4'-piperdin]-1'-yl)carbonyl]-2-(phenylmethyloxy)ethyl]-2-amino-2-methylpropanamide methanesulfonate (118 mg) in 120 μL 25% aqueous ethanol (980 mg/ml) was evaporated at 40° C. to give a solid. The lack of crystallinity was confirmed by X-ray analysis.
After 12 weeks at 40° C., 100% of the initial compound was present; after 12 weeks at 60° C., 99.7% of the initial compound was present; after 12 weeks at 80° C., 97.8% of the initial compound was present.

Data set [3] is described as follows: Flow properties of bulk drug. Conditions: as a bulk drug. The format is physicochemical.
The nature of data set [4]: Stability of the compound in standard pharmaceutical formulations. The format is physicochemical.
Data set [5] deals with growth hormone. Briefly: Growth hormone secretagogue assay described by Smith, et al., Science, 260, 1640-1643 (1993). The format is cell-based. Conditions: assay of Smith et al., Science 1993. From the text: Such a result is indicative of the activity of the formulation of the present invention as a growth hormone secretagogue.

Regarding `CC(C)(N)C(=O)N[C@H](COCc1ccccc1)C(=O)N1CCC2(CC1)CN(S(C)(=O)=O)c1ccccc12` [Compound 16, N-[1(R)-[(1,2-Dihydro-1-methanesulfonylspiro[3H-indole-3,4'-piperdin]-1'-yl)carbonyl]-2-(phenylmethyloxy)ethyl]-2-amino-2-methylpropanamide mesylate], the hygroscopicity entry in data set [1] is listed as “very hygroscopic”.
For the compound `CC(C)(N)C(=O)N[C@H](COCc1ccccc1)C(=O)N1CCC2(CC1)CN(S(C)(=O)=O)c1ccccc12` [amorphous form, N-[1(R)-[(1,2-dihydro-1-methanesulfonylspiro[3H-indole-3,4'-piperdin]-1'-yl)carbonyl]-2-(phenylmethyloxy)ethyl]-2-amino-2-methylpropanamide methanesulfonate], the fraction remaining at 2016 h in data set [2] was found to be 100%.
As for `CC(C)(N)C(=O)N[C@H](COCc1ccccc1)C(=O)N1CCC2(CC1)CN(S(C)(=O)=O)c1ccccc12` [active ingredient, N-[1(R)-[(1,2-dihydro-1-methane-sulfonyl-spiro[3H-indole-3,4'-piperdin]-1'-yl)carbonyl)-2-(phenyl-methyl-oxy)ethyl]-2-amino-2-methyl-propanamide], the flow properties result in data set [3] is on record as “poor flow properties”. Also, the “stability in standard pharmaceutical formulations” value in data set [4] is “relatively unstable”. The “activity as a growth hormone secretagogue” value in data set [5] is given as “had activity as a growth hormone secretagogue”.
